Source: patent publication US6747035B2, “1-alkyl or 1-cycloalkyltriazolo[4,3-a]quinazolin-5-ones as phosphodiesterase inhibitors” (Warner-Lambert LLC, priority 2001, dated 2004)

Tests used:
PDE4 = PDE4 enzyme inhibition (IC50), enzyme from cytosolic preparation of U937 cell line; assay type: biochemical, human; details: inhibitory activity on PDE4; substrate cAMP 0.25 μM; reaction stopped after 10 minutes
Procedure: The capacity of the compounds of formula (I) of the invention to inhibit cyclic nucleotide phosphodiesterases is evaluated by measuring their IC50 (concentration required to inhibit 50% of the enzymatic activity).
The type 4 phosphodiesterases are obtained from a cytosolic preparation extracted from a cell line U937 of human origin according to the method adapted from T. J. Torphy et al., J. Pharm. Exp. Ther. (1992), 263: 1195-1205.
The measurement of the enzymatic activity of the various types of PDE, and in particular the PDE4, is carried out according to a method adapted from W. J. Thompson et al., Advances in Cyclic Nucleotide Research, (1979) Vol. 10: 69-92, ed. G. Brooker et al. Raven Press, NY.
The substrate used is cGMP for PDE1 and PDE5 and cAMP for PDE 3 and PDE 4. The substrate concentration was 0.2 μM for PDE 1, PDE 3 and PDE 5, 0.25 μM for PDE 4.
The enzymatic reaction was stopped after 1 hour for PDE 1, PDE 3 and PDE 5 and 10 minutes for PDE 4.
The following table illustrates the inhibitory activity on PDE4 of some of the compounds of formula (I): […]

[1] = dose of 20 mg as a single intake; cited from earlier work

Row | IC50 (PDE4) [nM] | SMILES | undesirable effects [1]
1 | 31000 | CC(=O)Nc1ccc2c(c1)c(=O)n(Cc1ccccc1)c1nnc(C)n21 [Example 4, 7-acetamido-4-benzyl-1-methyl-4H-[1,2,4]triazolo[4,3-a]quinazolin-5-one] | –
2 | 61 | O=c1c2cc(Br)ccc2n2c(C3CCCC3)nnc2n1Cc1ccccc1 [Example 10, 4-benzyl-7-bromo-1-cyclopentyl-4H-[1,2,4]triazolo[4,3-a]quinazolin-5-one] | –
3 | 1000 | Cc1nnc2n(Cc3ccccc3)c(=O)c3cc(Br)ccc3n12 [Example 11, 4-benzyl-7-bromo-1-methyl-4H-[1,2,4]triazolo[4,3-a]quinazolin-5-one] | –

Second part, the compound before the results:

Row | SMILES | IC50 (PDE4) [nM] | undesirable effects [1]
4 | CC(=O)N(C)c1ccc2c(c1)c(=O)n(Cc1ccc(C#N)cc1)c1nnc(C3CCCC3)n21 [Example 8, 4-(4-cyanobenzyl)-1-cyclopentyl-7-(N-methylacetamido)-4H-[1,2,4]triazolo[4,3-a]quinazolin-5-one] | 1300 | –
5 | CC(=O)Nc1ccc2c(c1)c(=O)n(Cc1ccccc1)c1nnc(C3CCCC3)n21 [Example 2, 7-acetamido-4-benzyl-1-cyclopentyl-4H-[1,2,4]triazolo[4,3-a]quinazolin-5-one] | 8500 | –
6 | COc1ccc([C@]2(C#N)CC[C@@H](C(=O)O)CC2)cc1OC1CCCC1 [Ariflo] | – | significant undesirable effects, such as nausea and vomiting
7 | CNc1ccc2c(c1)c(=O)n(Cc1ccccc1)c1nnc(C3CCCC3)n21 [Example 7, 4-benzyl-1-cyclopentyl-7-methylamino-4H-[1,2,4]triazolo[4,3-a]quinazolin-5-one] | 75 | –
8 | CNc1ccc2c(c1)c(=O)n(Cc1ccc(C#N)cc1)c1nnc(C3CCCC3)n21 [Example 9, 4-(4-cyanobenzyl)-1-cyclopentyl-7-(N-methylamino)-4H-[1,2,4]triazolo[4,3-a]quinazolin-5-one] | 2 | –
9 | CC(=O)N(C)c1ccc2c(c1)c(=O)n(Cc1ccccc1)c1nnc(C3CCCC3)n21 [Example 5, 4-benzyl-1-cyclopentyl-7-(N-methylacetamido)-4H-[1,2,4]triazolo[4,3-a]quinazolin-5-one] | 2700 | –
